Our source for the IC50 values is patent US20230142274A1 (SIMCERE PHARMACEUTICAL CO., LTD., priority 2020, published 2023).

The test system of the experiment is Daudi cells. Description: Inhibition of human Daudi lymphoma cell proliferation (Cell-Titer Glo). The experiment is classed as cell-based. The following applies: 3 days incubation, read-out: Anti-Proliferative Activity Against Daudi cells IC50. As to the method:
Introduction of the experimental principle: After the RAD51 inhibitor to be tested was co-incubated with cancer cells for a period of time, the influence of the test compound on cell proliferation was measured by a method for counting cell proliferation based on the quantitative measurement of intracellular ATP content.
Materials and Cells: Daudi cells were purchased from ATCC; fetal bovine serum, 1640 medium and penicillin-streptomycin were purchased from Gibco Inc. (U.S.), 96-well plates were purchased from Corning Inc. (U.S.), and Cell-Titer Glo reagent was purchased from Promega Corporation (U.S.).
Cell culture: Daudi cells were cultured in 1640 culture medium containing 10% fetal bovine serum and 1% penicillin-streptomycin at 37° C. in an atmosphere containing 5% CO2. Cells in logarithmic growth phase could be used for experiments.
Assay of cell proliferation and viability: Cell-Titer Glo reagent was used to measure the inhibitory activities of the compounds on the proliferation of Daudi cell strain. The concentration of cells was adjusted, and the cells were seeded in a 96-well plate and cultured at 37° C. in an atmosphere containing 5% CO2 for 24 hours. The powder of the compound was dissolved in 100% DMSO to form a 10 mM solution. 10 μl of the solution of the compound was aspirated and transferred into a 96-well compound plate containing 20 μl of DMSO solution for 3-fold dilution and was then formulated into 10 serial dilutions. Thereafter, 2 μl of the solution of the compound was aspirated from the corresponding well and added correspondingly into a 96-well intermediate compound dilution plate containing 78 μl of complete culture medium in each well. The resultant was mixed well, and the plate was centrifuged at 1000 rpm for 1 minute. Finally, 10 μl of the solution of the compound was aspirated from the corresponding well of the 96-well intermediate compound dilution plate, and transferred into the corresponding well of the cell culture plate containing 90 μl of complete culture medium. The final concentration of DMSO was 0.25%. After the addition of the compound, the cells were continued to be incubated for 3 days at 37° C. in an atmosphere containing 5% CO2. Cell-Titer Glo reagent was added to measure cell viability.
% Compound inhibition was calculated and IC50 of the compound was filled;
% Compound inhibition=1−100%×(Signal−Bottom)/(Top−Bottom)

Read-outs that look alike come from different tables or passages of the source.

As a reminder, the IC50 is the midpoint of a concentration-inhibition curve. `Cc1cc(Nc2ccc(-c3cnc([C@H]4CC[C@H](NC(=O)OC(C)C)CC4)s3)c(S(=O)(=O)C(C)C)c2)sn1` [Example 38]: the IC50 (Homo sapiens, 72 h) stood at 150 nM.
Turning to `CN=S(=O)(c1cc(Nc2cc(C)[nH]n2)ccc1-c1cnc([C@H]2CC[C@H](NC(=O)OC(C)C)CC2)s1)C1CC1` (stereo partly drawn) [Example 97, isopropyl trans-(4-(5-(4-((5-methyl-1H-pyrazol-3-yl)amino)-2-(N-methylcyclopropanesulfonimidoyl)phenyl)thiazol-2-yl)cyclohexyl)carbamate], the IC50 (Homo sapiens, 72 h) came out at 290 nM.
With `CC(C)OC(=O)N[C@H]1CC[C@H](c2ncc(-c3ccc(Oc4ccccn4)cc3S(=O)(=O)C3CC3)s2)CC1` [Example 83, isopropyl trans-(4-(5-(2-(cyclopropylsulfonyl)-4-(pyridin-2-yloxy)phenyl)thiazol-2-yl)cyclohexyl)carbamate], the IC50 (Homo sapiens, 72 h) was found to be 200 nM.
The same measure, in the same setting: the figure for `CC(C)OC(=O)Nc1ccc(-c2cnc(C3CCC(NC(=O)OC(C)C)CC3)s2)c(S(C)(=O)=NC2CC2)c1` (stereo not drawn) [Example 43, isopropyl trans-N-[3-(N-cyclopropyl-S-methyl-sulfonimidoyl)-4-[2-[4-(isopropoxycarbonylamino)cyclohexyl]thiazol-5-yl]phenyl]carbamate] is 1580 nM.
Still for that read-out and setting: in the case of `CC(C)OC(=O)N[C@H]1CC[C@H](c2ncc(-c3ccc(Nc4cccnc4)cc3S(=O)(=O)C3CC3)s2)CC1` [Example 76, isopropyl trans-N-[4-[5-[2-cyclopropylsulfonyl-4-(3-pyridylamino)phenyl]thiazol-2-yl]cyclohexyl]carbamate] it was 9 nM.
The same measure, in the same setting: the figure for `CC(C)OC(=O)N[C@H]1CC[C@H](c2ncc(-c3ccc(Nc4cc(C5CC5)[nH]n4)cc3S(=N)(=O)C3CC3)s2)CC1` (stereo partly drawn) [Example 63, isopropyl trans-N-[4-[5-[4-[(5-cyclopropyl-1H-pyrazol-3-yl)amino]-2-(cyclopropylsulfonimidoyl)phenyl]thiazol-2-yl]cyclohexyl]carbamate] is 70 nM.
For `COc1ccc(Nc2ccc(-c3cnc([C@H]4CC[C@H](NC(=O)OC(C)C)CC4)s3)c(S(=O)(=O)C3CC3)c2)cn1` [Example 93, isopropyl trans-(4-(5-(2-(cyclopropylsulfonyl)-4-((6-methoxypyridin-3-yl)amino)phenyl)thiazol-2-yl)cyclohexyl)carbamate], the IC50 (Homo sapiens, 72 h) worked out at 10 nM.
With `CC(C)OC(=O)N[C@H]1CC[C@H](c2ncc(-c3ccc(Nc4cc(C(F)(F)F)[nH]n4)cc3S(=O)(=O)C(C)C)s2)CC1` [Example 46], under “Homo sapiens, 72 h”, the IC50 came out at 390 nM.
The same measure, in the same setting: the figure for `Cc1cc(Nc2ccc(-c3nc4c(s3)CC(NC(=O)OC(C)C)CC4)c(S(=O)(=O)C3CC3)c2)n[nH]1` (stereo not drawn) [Example 107, isopropyl (2-(2-(cyclopropylsulfonyl)-4-((5-methyl-1H-pyrazol-3-yl)amino)phenyl)-4,5,6,7-tetrahydrobenzo[d]thiazol-6-yl)carbamate] is 275 nM; for `Cc1cc(Nc2ccc(-c3ncc([C@H]4CC[C@H](NC(=O)OC(C)C)CC4)s3)c(S(=O)(=O)C3CC3)c2)n[nH]1` [Example 91, isopropyl trans-(4-(2-(2-(cyclopropylsulfonyl)-4-((5-methyl-1H-pyrazol-3-yl)amino)phenyl)thiazol-5-yl)cyclohexyl)carbamate] it is 1500 nM; for `CC(C)OC(=O)Nc1ccc(-c2nnc([C@H]3CC[C@H](NC(=O)OC(C)C)CC3)s2)c(S(=N)(=O)C(C)C)c1` (stereo partly drawn) [Example 41, isopropyl trans-N-[4-[5-[4-(isopropoxycarbonylamino)cyclohexyl]-1,3,4-thiadiazol-2-yl]-3-(isopropylsulfonimidoyl)phenyl]carbamate] it is 900 nM.
`CC(C)OC(=O)N[C@H]1CC[C@H](c2ncc(-c3ccc(Nc4cn[nH]c4)cc3S(=O)(=O)C3CC3)s2)CC1` [Example 71]: the IC50 (Homo sapiens, 72 h) stood at 16 nM.
Same read-out and setting: the figure for `Cc1cc(Nc2ccc(-c3cnc([C@H]4CC[C@H](NC(=O)OC(C)C)CC4)[nH]3)c(S(=O)(=O)C3CC3)c2)n[nH]1` [Example 90] is 8800 nM; for `CC(C)OC(=O)NC1CCC(c2ncc(-c3ccc(Nc4ccc(F)cn4)cc3S(=O)(=O)C3CC3)s2)CC1` (stereo not drawn) [Example 75, isopropyl trans-N-[4-[5-[2-cyclopropylsulfonyl]-4-[(5-fluoro-2-pyridyl)amino]phenyl]thiazol-2-yl]cyclohexyl]carbamate] it is 22 nM; for `Cc1cc(Nc2ccc(-c3cnc(-c4ccc(NC(=O)OC(C)C)cc4)s3)c(S(=O)(=O)C3CC3)c2)n[nH]1` [Example 61] it is 104 nM.
On the same count and under the same terms, the figure for `CC(C)OC(=O)N[C@H]1CC[C@H](c2ncc(-c3ccc(Nc4cnn(CCF)c4)cc3S(=N)(=O)C3COC3)s2)CC1` (stereo partly drawn) [Example 106, isopropyl trans-N-[4-[5-[4-[[1-(2-fluoroethyl)pyrazol-4-yl]amino]-2-(oxetan-3-ylsulfonimidoyl)phenyl]thiazol-2-yl]cyclohexyl]carbamate] is 40 nM; for `CC(C)OC(=O)N[C@H]1CC[C@H](c2ncc(-c3ccc(Nc4nnco4)cc3S(=N)(=O)C3CC3)s2)CC1` (stereo partly drawn) [Example 100, isopropyl trans-(4-(5-(4-((1,3,4-oxadiazol-2-yl)amino)-2-(cyclopropanesulfonimidoyl)phenyl)thiazol-2-yl)cyclohexyl)carbamate] it is 680 nM.
The same measure, in the same setting: in the case of `CC(C)OC(=O)N[C@H]1CC[C@H](c2ncc(-c3ccc(Nc4cccnn4)cc3S(=O)(=O)C(C)C)s2)CC1` [Example 44, isopropyl trans-N-[4-[5-[2-isopropylsulfonyl-4-(pyridazin-3-ylamino)phenyl]thiazol-2-yl]cyclohexyl]carbamate] it was 680 nM.
As for `CCNC(=O)c1ccc(-c2cnc([C@H]3CC[C@H](NC(=O)OC(C)C)CC3)s2)c(S(=O)(=O)C2CC2)c1` [Example 111, isopropyl trans-(4-(5-(2-(cyclopropylsulfonyl)-4-(ethylcarbamoyl)phenyl)thiazol-2-yl)cyclohexyl)carbamate], the 50% inhibitory concentration (IC50) (Homo sapiens, 72 h) turned out to be 700 nM.
Take `CC(=O)Nc1ccc(-c2cnc([C@H]3CC[C@H](NC(=O)OC(C)C)CC3)s2)c(S(=N)(=O)C2CC2)c1` (stereo partly drawn) [Example 67, isopropyl trans-(4-(5-(4-acetylamino-2-(cyclopropanesulfonimidoyl)phenyl]thiazol-2-yl)cyclohexyl)carbamate]: the IC50 (Homo sapiens, 72 h) was 2600 nM.
As to `CC(C)OC(=O)Nc1ccc(-c2cnc(N3CC4C(C3)C4NC(=O)OC(C)C)s2)c(S(=O)(=O)NC(C)(C)C)c1` (stereo not drawn) [Example 10, isopropyl exo-N-[3-(tert-butylsulfamoyl)-4-[2-[6-(isopropoxycarbonylamino)-3-azabicyclo[3.1.0]hex-3-yl]thiazol-5-yl]phenyl]carbamate], the IC50 amounted to 9720 nM.
In the case of `CC(C)OC(=O)N[C@H]1CC[C@H](c2ncc(-c3ccc(Nc4ncccn4)cc3S(=O)(=O)C3CC3)s2)CC1` [Example 79, isopropyl trans-(4-(5-(2-(cyclopropylsulfonyl)-4-(pyrimidin-2-ylamino)phenyl)thiazol-2-yl)cyclohexyl)carbamate], the IC50 (Homo sapiens, 72 h) came out at 51 nM.
As for `CC(C)OC(=O)N[C@H]1CC[C@H](c2ncc(-c3ccc(Nc4ccc(=O)[nH]c4)cc3S(=N)(=O)C3CC3)s2)CC1` (stereo partly drawn) [Example 95, isopropyl trans-(4-(5-(2-(cyclopropanesulfonimidoyl)-4-((6-oxo-1,6-dihydropyridin-3-yl)amino)phenyl)thiazol-2-yl)cyclohexyl)carbamate], the 50% inhibitory concentration (IC50) (Homo sapiens, 72 h) was 132 nM.
The same measure, in the same setting: in the case of `CC(C)OC(=O)N[C@H]1CC[C@H](c2ncc(-c3ccc(Nc4ccccn4)cc3S(=O)(=O)C3CC3)s2)CC1` [Example 66, isopropyl trans-N-[4-[5-[2-cyclopropylsulfonyl-4-(2-pyridylamino)phenyl]thiazol-2-yl]cyclohexyl]carbamate] it was 18 nM; in that of `COc1ccc(Nc2ccc(-c3cnc([C@H]4CC[C@H](NC(=O)OC(C)C)CC4)s3)c(S(=O)(=O)C3COC3)c2)cn1` [Example 113, isopropyl trans-N-[4-[5-[4-[(6-methoxy-3-pyridyl)amino]-2-(oxetan-3-ylsulfonyl)phenyl]thiazol-2-yl]cyclohexyl]carbamate], 16 nM; in that of `CC(C)OC(=O)Nc1ccc(-c2cnc(N3CCC4(CC3)CN(C(=O)OC(C)C)C4)s2)c(S(=O)(=O)NC(C)(C)C)c1` [Example 8, isopropyl 7-(5-(2-(N-(tert-butyl)sulfamoyl)-4-((isopropoxycarbonyl)amino)phenyl)thiazol-2-yl)-2,7-diazaspiro[3.5]nonane-2-carboxylate], 3950 nM.
Still for that read-out and setting: the figure for `Cc1cc(Nc2ccc(-c3ccc([C@H]4CC[C@@H](NC(=O)OC(C)C)CC4)s3)c(S(=O)(=O)C3CC3)c2)n[nH]1` [Example 89-1, isopropyl cis-(4-(5-(2-(cyclopropylsulfonyl)-4-((5-methyl-1H-pyrazol-3-yl)amino)phenyl)thiophen-2-yl)cyclohexyl)carbamate] is 127 nM.
